Data reported in patent US9763445B2, “Safened herbicidal compositions comprising a pyridine carboxylic acid herbicide” (Dow AgroSciences, LLC, priority 2014, dated 2017).

What was measured:
[1] = tested on: giant foxtail (SETFA); experiment: Postemergence greenhouse trial, % visual injury on giant foxtail; format: in vivo, Setaria faberi; conditions: alone, 35 g/ha
Procedure: Seeds of the desired test plant species were planted in Sun Gro MetroMix® 306 planting mixture, which typically has a pH of 6.0 to 6.8 and an organic matter content of about 30 percent, in plastic pots with a surface area of 103.2 square centimeters (cm^2). When required to ensure good germination and healthy plants, a fungicide treatment and/or other chemical or physical treatment was applied. The plants were grown for 7-36 days (d) in a greenhouse with an approximate 14-hour (h) photoperiod which was maintained at about 23° C. during the day and 22° C. during the night. Nutrients and water were added on a regular basis and supplemental lighting was provided with overhead metal halide 1000-Watt lamps as necessary. The plants were employed for testing when they reached the second or third true leaf stage.
Weighed amounts of technical material were dissolved in a volume of 97:3 volume per volume (v/v) acetone/dimethyl sulfoxide (DMSO) to stock solutions. […] The concentrated stock solutions were diluted with an aqueous mixture of 1.5% v/v of Agri-dex crop oil concentrate to provide the appropriate application rates. Compound requirements are based upon a 12 milliliter (mL) application volume at a rate of 187 liters per hectare (L/ha). […]
The treated plants and control plants were placed in a greenhouse as described above and watered by sub-irrigation to prevent wash-off of the test compounds. After 20-22 d, the condition of the test plants as compared with that of the control plants was determined visually and scored on a scale of 0 to 100 percent where 0 corresponds to no injury and 100 corresponds to complete kill. The condition of the test plants was compared with that of the control plants as determined visually and scored on a scale of 0 to 100 percent, where 0 corresponds to no injury and 100 corresponds to complete kill. […]
The safener cloquintocet-mexyl was combined with compound 1, compound 2, compound 4, compound 5, and compound 6, and applied to corn/maize (ZEAMX) and spring wheat (TRZAS) and the phytotoxicity of the herbicidal compositions was measured. […]

[2] = tested on: green foxtail (SETVI); experiment: Postemergence greenhouse trial, % visual injury on green foxtail; format: in vivo, Setaria viridis

Row | SMILES | % visual injury, Ob [1] [%] | % visual injury, observed (Ob) ([2]; compound 2 35 + CQC-m 0 g/ha) [%] | % visual injury, observed (Ob) ([2]; compound 2 70 + CQC-m 0 g/ha) [%] | % visual injury, observed (Ob) ([2]; compound 2 140 + CQC-m 0 g/ha) [%]
1 | CCCCCC(C)OC(=O)COc1ccc(Cl)c2cccnc12 (stereo not shown) [CQC-m, cloquintocet-mexyl, reference compound] | 0 | – | – | –
2 | Nc1c(F)c(-c2ccc3cc[nH]c3c2F)nc(C(=O)OCc2ccccc2)c1Cl [compound 2] | – | 100 | 97 | 98
